Measured values published in the supplement of paper PMC11208160.

Assay: recombinant UMI read abundance after kanamycin selection (control-corrected) (log10(CPM+1)); higher = more efficient recombination; extreme values may be limits of the assay; sequences stand for … in AGTGCAGAGAAAATCGGCCAGTTTTCTCTGCCTGCAGTCCGCATGCCGTGGGACCCCTTGGGTTCTAACCTGTTGCCTAGATTTATGCAGCGGACTGCCTTTCTCCCAAAGTGATAAACCGG…AGGTTGGTTTCACT; site = the 11-nt donor
Summary of the method: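 Pooled Escherichia coli screen of donor and donor-binding-loop pairs for the IS621 bridge recombinase. Each pair sits with a 12-nt UMI on a plasmid carrying a promoterless kanamycin gene. The library was co-electroporated with a target plasmid encoding a fixed target and T7-inducible recombinase, then plated with IPTG (0.07 mM) plus kanamycin, or unselected, each in two replicates. Recombinant UMIs were PCR-amplified across the donor–target junction and sequenced. Counts became CPM, averaged over replicates, scaled by control-derived factors and reported as log10(CPM+1).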
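Also: IS621 bridge recombinase in Escherichia coli cells against a fixed T5 target plasmid.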

Sequence	recombinant UMI read abundance (log10)
CCCCACACATGGACCGGTTTTCCCGGTAATCCGTATTTGTA (site GCCCACACTTA)	0.00479
CCCCACACATGGACCGGTTTTCCCGGTAATCCGTATTTGTA (site TCCCACACTTA)	0.0139
CCCCAGACATGGACCGGTTTTCCCGGTAATCCGTATTTGTA (site CCCCAAACTTA)	0.459
CCCCAGACATGGACCGGTTTTCCCGGTAATCCGTATTTGTA (site CCCCACACTTA)	0.0077
CCCCAGACATGGACCGGTTTTCCCGGTAATCCGTATTTGTA (site CCCCAGACTTA)	0.691
CCCCAGACATGGACCGGTTTTCCCGGTAATCCGTATTTGTA (site CCCCATACTTA)	0.00999
CCCCCCACATGGACCGGTTTTCCCGGTAATCCGTATTTGTA (site CCCCACACTTA)	0.00745
CCCCCCACATGGACCGGTTTTCCCGGTAATCCGTATTTGTA (site CCCCCCACTTA)	0.82
CCCCCCACATGGACCGGTTTTCCCGGTAATCCGTATTTGTA (site CCCCGCACTTA)	0.0126
CCCCCCACATGGACCGGTTTTCCCGGTAATCCGTATTTGTA (site CCCCTCACTTA)	0.00445
CCCCGCACATGGACCGGTTTTCCCGGTAATCCGTATTTGTA (site CCCCACACTTA)	0.48
CCCCGCACATGGACCGGTTTTCCCGGTAATCCGTATTTGTA (site CCCCCCACTTA)	0.00659
CCCCGCACATGGACCGGTTTTCCCGGTAATCCGTATTTGTA (site CCCCGCACTTA)	1.16
CCCCGCACATGGACCGGTTTTCCCGGTAATCCGTATTTGTA (site CCCCTCACTTA)	0.00635
CCCCGCCCATGGACCGGTTTTCCCGGTAATCCGTATTTGTC (site CCCCGCCCTGA)	0
CCCCGTACATGGACCGGTTTTCCCGGTAATCCGTATTTGAT (site CCCCGTACTAT)	1.45
CCCCGTACATGGACCGGTTTTCCCGGTAATCCGTATTTGCT (site CACCGTACTAG)	0.00449
CCCCGTACATGGACCGGTTTTCCCGGTAATCCGTATTTGCT (site CCCCGTACTAG)	1.56
CCCCGTACATGGACCGGTTTTCCCGGTAATCCGTATTTGCT (site CGCCGTACTAG)	0
CCCCGTACATGGACCGGTTTTCCCGGTAATCCGTATTTGCT (site CTCCGTACTAG)	0.542
CCCCTCACATGGACCGGTTTTCCCGGTAATCCGTATTTGTA (site CCCCACACTTA)	0.0243
CCCCTCACATGGACCGGTTTTCCCGGTAATCCGTATTTGTA (site CCCCCCACTTA)	0.274
CCCCTCACATGGACCGGTTTTCCCGGTAATCCGTATTTGTA (site CCCCGCACTTA)	0.0202
CCCCTCACATGGACCGGTTTTCCCGGTAATCCGTATTTGTA (site CCCCTCACTTA)	1.15
CCCCTCGCATGGACCGGTTTTCCCGGTAATCCGTATTTGAA (site CCCCTCGCTTT)	0.801

Sequence	recombinant UMI read abundance (log10)
CCCCTCTCATGGACCGGTTTTCCCGGTAATCCGTATTTGGG (site CCCATCTCTCC)	0
CCCCTCTCATGGACCGGTTTTCCCGGTAATCCGTATTTGGG (site CCCCTCTCTCC)	0.0198
CCCCTCTCATGGACCGGTTTTCCCGGTAATCCGTATTTGGG (site CCCGTCTCTCC)	0.00587
CCCCTCTCATGGACCGGTTTTCCCGGTAATCCGTATTTGGG (site CCCTTCTCTCC)	0
CCCCTTACATGGACCGGTTTTCCCGGTAATCCGTATTTGGT (site CCCCTTACTAC)	0.238
CCCGACCCATGGACCGGTTTTCCCGGTAATCCGTATTTGAG (site CCCGACCCTCT)	0.0182
CCCGAGTCATGGACCGGTTTTCCCGGTAATCCGTATTTGCC (site CCCGAGTCTGG)	0.938
CCCGGCCCATGGACCGGTTTTCCCGGTAATCCGTATTTGCA (site CCCGGACCTTG)	0.00734
CCCGGCCCATGGACCGGTTTTCCCGGTAATCCGTATTTGCA (site CCCGGCCCTTG)	0
CCCGGCCCATGGACCGGTTTTCCCGGTAATCCGTATTTGCA (site CCCGGGCCTTG)	0
CCCGGCCCATGGACCGGTTTTCCCGGTAATCCGTATTTGCA (site CCCGGTCCTTG)	0.0145
CCCGGTTCATGGACCGGTTTTCCCGGTAATCCGTATTTGCA (site CCCGGTACTTG)	0
CCCGGTTCATGGACCGGTTTTCCCGGTAATCCGTATTTGCA (site CCCGGTCCTTG)	0
CCCGGTTCATGGACCGGTTTTCCCGGTAATCCGTATTTGCA (site CCCGGTGCTTG)	0.0148
CCCGGTTCATGGACCGGTTTTCCCGGTAATCCGTATTTGCA (site CCCGGTTCTTG)	1.83
CCCGTACCATGGACCGGTTTTCCCGGTAATCCGTATTTGCT (site CCCGTACCTAG)	0
CCCGTCGCATGGACCGGTTTTCCCGGTAATCCGTATTTGCC (site CCCGTCGCTGG)	1.45
CCCGTCTCATGGACCGGTTTTCCCGGTAATCCGTATTTGGG (site CCCATCTCTCC)	0.0267
CCCGTCTCATGGACCGGTTTTCCCGGTAATCCGTATTTGGG (site CCCCTCTCTCC)	0.0424
CCCGTCTCATGGACCGGTTTTCCCGGTAATCCGTATTTGGG (site CCCGTCTCTCC)	0.0026
CCCGTCTCATGGACCGGTTTTCCCGGTAATCCGTATTTGGG (site CCCTTCTCTCC)	0.018
CCCTAACCATGGACCGGTTTTCCCGGTAATCCGTATTTGCT (site CCCTAACCTAG)	0
CCCTACTCATGGACCGGTTTTCCCGGTAATCCGTATTTGGG (site CCCTACTCTCC)	0.346
CCCTACTCATGGACCGGTTTTCCCGGTAATCCGTATTTGGG (site CCCTCCTCTCC)	0.00345
CCCTACTCATGGACCGGTTTTCCCGGTAATCCGTATTTGGG (site CCCTGCTCTCC)	0.0112

Sequence	recombinant UMI read abundance (log10)
CCCTACTCATGGACCGGTTTTCCCGGTAATCCGTATTTGGG (site CCCTTCTCTCC)	0.00875
CCCTAGCCATGGACCGGTTTTCCCGGTAATCCGTATTTGGC (site CCCTAGCCTGA)	0
CCCTAGCCATGGACCGGTTTTCCCGGTAATCCGTATTTGGC (site CCCTAGCCTGC)	0
CCCTAGCCATGGACCGGTTTTCCCGGTAATCCGTATTTGGC (site CCCTAGCCTGG)	0
CCCTAGCCATGGACCGGTTTTCCCGGTAATCCGTATTTGGC (site CCCTAGCCTGT)	0
CCCTATCCATGGACCGGTTTTCCCGGTAATCCGTATTTGAC (site CCCTATCCTGT)	0
CCCTATTCATGGACCGGTTTTCCCGGTAATCCGTATTTGCT (site CCCTATTCTAG)	1.7
CCCTCCTCATGGACCGGTTTTCCCGGTAATCCGTATTTGCC (site CACTCCTCTGG)	0.544
CCCTCCTCATGGACCGGTTTTCCCGGTAATCCGTATTTGCC (site CCCTCCTCTGG)	2.25
CCCTCCTCATGGACCGGTTTTCCCGGTAATCCGTATTTGCC (site CGCTCCTCTGG)	0
CCCTCCTCATGGACCGGTTTTCCCGGTAATCCGTATTTGCC (site CTCTCCTCTGG)	0.448
CCCTCGCCATGGACCGGTTTTCCCGGTAATCCGTATTTGCC (site CCCTAGCCTGG)	0
CCCTCGCCATGGACCGGTTTTCCCGGTAATCCGTATTTGCC (site CCCTCGCCTGG)	0
CCCTCGCCATGGACCGGTTTTCCCGGTAATCCGTATTTGCC (site CCCTGGCCTGG)	0
CCCTCGCCATGGACCGGTTTTCCCGGTAATCCGTATTTGCC (site CCCTTGCCTGG)	0.011
CCCTCGGCATGGACCGGTTTTCCCGGTAATCCGTATTTGCT (site CCCTCGGCTAG)	0.0794
CCCTGTTCATGGACCGGTTTTCCCGGTAATCCGTATTTGGG (site CCCTGTTCTCC)	0.00741
CCCTTCGCATGGACCGGTTTTCCCGGTAATCCGTATTTGGG (site CCCTTCACTCC)	0.0167
CCCTTCGCATGGACCGGTTTTCCCGGTAATCCGTATTTGGG (site CCCTTCCCTCC)	0
CCCTTCGCATGGACCGGTTTTCCCGGTAATCCGTATTTGGG (site CCCTTCGCTCC)	0.0148
CCCTTCGCATGGACCGGTTTTCCCGGTAATCCGTATTTGGG (site CCCTTCTCTCC)	0.0112
CCGAAAGCATGGACCGGTTTTCCCGGTAATCCGTATTTGAT (site CCAAAAGCTAT)	0.501
CCGAAAGCATGGACCGGTTTTCCCGGTAATCCGTATTTGAT (site CCCAAAGCTAT)	0
CCGAAAGCATGGACCGGTTTTCCCGGTAATCCGTATTTGAT (site CCGAAAGCTAT)	0.975
CCGAAAGCATGGACCGGTTTTCCCGGTAATCCGTATTTGAT (site CCTAAAGCTAT)	0.0026
